Assay results as given in patent publication US5869271A, “G-beta-gamma regulated phosphatidylinositol-3' kinase” (Onyx Pharmaceuticals, priority 1997, dated 1999).

What was measured:
[1] = tested on: neutrophils; conditions: cited from earlier work
[2] = biological target: T1, PI3K activity in α-(EE)-p101 immunoprecipitates from U937 cells (Homo sapiens, UniProt P48736); test: PI3K assay on α-(EE)-p101 immunoprecipitates from transfected U937 cells; type: biochemical
T1 construct: U937 cells (human) contain an endogenous PI3K catalytic subunit; expressed in transfected cells; host or cells: U937 (p101 transfected, catalytic subunit endogenous)
Procedure: U937 cells were transiently transfected with mammalian expression vectors encoding either (EE)120 or (EE)101, co-transfected in combination with mammalian expression vectors encoding myc101, myc120, or an irrelevant control myc fusion protein, as indicated. A total of 40 μg of vector DNA was used. After co-transfection, the cells lysed, precleaned and immunoprecipitated with protein G sepharose covalently cross-linked to α-(EE) monoclonal antibody as described more fully in the Examples herein. The resulting immunoprecipitates were washed and Gβγ-activated (1 μM, final concentration) PI3K activity was assayed. The PI3K activity detected in immunoprecipitates from cells transfected with irrelevant (EE)-tagged protein, either with or without Gβγs was subtracted from the data shown (these were means of 1896 dpm and 2862 dpm in the absence and presence of Gβγs, respectively).
If the PI3K assays were performed on immunoprecipitates from U937 cells (see following examples) then the PI3K was immobilized on 10 μl of packed protein G Sepharose beads in an ice-cold buffer defined above. 30 μl of a mixture of phospholipids with or without Gβγs and/or Gαs (either GDP-bound or activated) was added to the 5 μl fractions, or 10 μl of beads, and mixed. […]

[3] = tested on: Gβγ-activated PI3K (PI3Ks A and B; p117/p101 and p120/p101 heterodimers); test: PI3K assay on purified pig neutrophil Gβγ-activated PI3Ks A and B; type: biochemical; conditions: 100 nM wortmannin; 5 μM ATP in the assays
[4] = biological target: free p120 PI3K catalytic subunit (Sus scrofa, UniProt O02697); test: PI3K assay on free recombinant p120 (Sf9-derived); type: biochemical, porcine
Sequence of free p120 PI3K catalytic subunit (O02697 whole entry): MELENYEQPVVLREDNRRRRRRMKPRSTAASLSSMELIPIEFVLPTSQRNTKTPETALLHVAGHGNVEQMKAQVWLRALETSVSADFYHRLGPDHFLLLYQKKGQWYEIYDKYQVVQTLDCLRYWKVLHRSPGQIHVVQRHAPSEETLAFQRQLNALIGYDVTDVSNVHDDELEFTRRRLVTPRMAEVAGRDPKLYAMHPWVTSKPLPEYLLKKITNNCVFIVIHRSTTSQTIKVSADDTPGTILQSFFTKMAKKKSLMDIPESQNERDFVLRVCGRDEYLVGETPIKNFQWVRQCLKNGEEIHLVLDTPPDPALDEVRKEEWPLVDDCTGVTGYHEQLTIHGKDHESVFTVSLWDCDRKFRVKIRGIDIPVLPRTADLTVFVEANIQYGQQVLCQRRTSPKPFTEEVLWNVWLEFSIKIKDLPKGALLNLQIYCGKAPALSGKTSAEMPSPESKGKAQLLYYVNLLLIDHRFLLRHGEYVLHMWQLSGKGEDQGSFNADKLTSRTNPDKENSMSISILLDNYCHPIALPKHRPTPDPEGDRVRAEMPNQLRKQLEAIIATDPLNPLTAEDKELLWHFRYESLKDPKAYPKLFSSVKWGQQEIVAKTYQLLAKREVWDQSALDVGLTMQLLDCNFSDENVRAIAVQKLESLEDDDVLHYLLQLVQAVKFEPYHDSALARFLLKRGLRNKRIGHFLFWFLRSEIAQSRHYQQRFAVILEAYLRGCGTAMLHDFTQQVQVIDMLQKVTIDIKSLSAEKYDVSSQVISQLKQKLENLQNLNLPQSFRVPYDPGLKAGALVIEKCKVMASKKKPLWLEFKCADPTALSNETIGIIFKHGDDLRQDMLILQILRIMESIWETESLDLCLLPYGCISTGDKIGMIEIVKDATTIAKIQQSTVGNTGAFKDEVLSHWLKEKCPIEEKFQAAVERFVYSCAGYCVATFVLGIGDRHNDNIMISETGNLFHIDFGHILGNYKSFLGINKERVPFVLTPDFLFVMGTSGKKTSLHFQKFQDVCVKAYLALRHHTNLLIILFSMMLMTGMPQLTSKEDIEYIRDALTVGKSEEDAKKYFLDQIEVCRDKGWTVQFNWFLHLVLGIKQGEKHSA
Procedure: Assays contained either 7 nM p101/p120 or 36 nM p120 alone (final concentrations) which were incubated with various reagents; 10 mM NaF and 30 μM AlCl3 (A/F) ; 1 μM Gβγ-subunits (βγ); 2 μM Gα-GDP; 100 nM wortmannin (W) or 50 μM tyrosine phosphorylated peptide (PY) for a total of 15 minutes (at 0° C.) prior to starting the assays by adding [γ^32 P]-ATP; [^32 P]-incorporated into [^32 P]-PtdIns(3,4,5) P3 was quantified. The data shown are means (n=2).
Purified aliquots of Sf9 -derived or pig neutrophil cytosol-derived PI3K were diluted in ice-cold 0.12M NaCl, 25 mM HEPES, 1 mM EGTA, 1 mM DTT, 1 mg-ml^-1 BSA, 1% betaine, 0.02%, w/v, Tween-20, pH 7.4, 0° C. to an appropriate extent, then 5 μl aliquots were stored on ice until assayed. […] 30 μl of a mixture of phospholipids with or without Gβγs and/or Gαs (either GDP-bound or activated) was added to the 5 μl fractions, or 10 μl of beads, and mixed. After 10 minutes on ice, 5-10 μl of last wash buffer, supplemented with MgCl2 to give a final concentration in the extant assay volume of 3.5 mM, was added and mixed. Six minutes later, 5 μl of last wash buffer was added (to give a final assay volume of 50 μl) containing [^32 ]-ATP (typically 10 μCi assay^-1, Amersham, PB10168) and 3.5 mM MgCl2, tubes were mixed and transferred to a 30° C. water bath. […]

T1 sequence (P48736 whole entry): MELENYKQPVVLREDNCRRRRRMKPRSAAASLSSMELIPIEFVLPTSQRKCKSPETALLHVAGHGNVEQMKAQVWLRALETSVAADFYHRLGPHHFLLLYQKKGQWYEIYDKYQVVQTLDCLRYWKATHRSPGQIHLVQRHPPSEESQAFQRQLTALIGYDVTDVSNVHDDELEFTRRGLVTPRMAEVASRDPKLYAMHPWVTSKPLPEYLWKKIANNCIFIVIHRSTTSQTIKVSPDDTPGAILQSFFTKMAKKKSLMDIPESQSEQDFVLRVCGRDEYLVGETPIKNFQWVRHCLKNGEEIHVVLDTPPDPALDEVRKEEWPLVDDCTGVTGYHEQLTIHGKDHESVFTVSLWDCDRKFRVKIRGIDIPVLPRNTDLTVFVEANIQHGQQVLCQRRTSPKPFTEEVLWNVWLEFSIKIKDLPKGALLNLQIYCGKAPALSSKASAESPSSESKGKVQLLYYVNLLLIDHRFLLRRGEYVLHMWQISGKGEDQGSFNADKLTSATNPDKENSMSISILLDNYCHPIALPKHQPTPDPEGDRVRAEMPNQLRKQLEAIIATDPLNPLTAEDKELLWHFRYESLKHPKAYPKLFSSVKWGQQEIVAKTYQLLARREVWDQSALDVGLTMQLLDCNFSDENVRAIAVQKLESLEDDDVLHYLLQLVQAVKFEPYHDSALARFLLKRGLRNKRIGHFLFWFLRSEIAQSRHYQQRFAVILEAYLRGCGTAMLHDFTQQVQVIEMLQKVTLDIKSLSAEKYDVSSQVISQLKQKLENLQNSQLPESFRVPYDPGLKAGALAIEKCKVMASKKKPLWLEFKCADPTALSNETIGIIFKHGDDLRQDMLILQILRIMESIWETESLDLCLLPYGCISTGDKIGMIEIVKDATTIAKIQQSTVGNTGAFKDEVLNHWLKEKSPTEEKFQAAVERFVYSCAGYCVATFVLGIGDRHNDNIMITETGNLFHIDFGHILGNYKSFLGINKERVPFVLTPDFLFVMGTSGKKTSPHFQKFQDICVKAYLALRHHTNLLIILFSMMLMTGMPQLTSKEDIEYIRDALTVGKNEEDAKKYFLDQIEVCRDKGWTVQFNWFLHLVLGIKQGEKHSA
T1 sequence (as listed by the source partner): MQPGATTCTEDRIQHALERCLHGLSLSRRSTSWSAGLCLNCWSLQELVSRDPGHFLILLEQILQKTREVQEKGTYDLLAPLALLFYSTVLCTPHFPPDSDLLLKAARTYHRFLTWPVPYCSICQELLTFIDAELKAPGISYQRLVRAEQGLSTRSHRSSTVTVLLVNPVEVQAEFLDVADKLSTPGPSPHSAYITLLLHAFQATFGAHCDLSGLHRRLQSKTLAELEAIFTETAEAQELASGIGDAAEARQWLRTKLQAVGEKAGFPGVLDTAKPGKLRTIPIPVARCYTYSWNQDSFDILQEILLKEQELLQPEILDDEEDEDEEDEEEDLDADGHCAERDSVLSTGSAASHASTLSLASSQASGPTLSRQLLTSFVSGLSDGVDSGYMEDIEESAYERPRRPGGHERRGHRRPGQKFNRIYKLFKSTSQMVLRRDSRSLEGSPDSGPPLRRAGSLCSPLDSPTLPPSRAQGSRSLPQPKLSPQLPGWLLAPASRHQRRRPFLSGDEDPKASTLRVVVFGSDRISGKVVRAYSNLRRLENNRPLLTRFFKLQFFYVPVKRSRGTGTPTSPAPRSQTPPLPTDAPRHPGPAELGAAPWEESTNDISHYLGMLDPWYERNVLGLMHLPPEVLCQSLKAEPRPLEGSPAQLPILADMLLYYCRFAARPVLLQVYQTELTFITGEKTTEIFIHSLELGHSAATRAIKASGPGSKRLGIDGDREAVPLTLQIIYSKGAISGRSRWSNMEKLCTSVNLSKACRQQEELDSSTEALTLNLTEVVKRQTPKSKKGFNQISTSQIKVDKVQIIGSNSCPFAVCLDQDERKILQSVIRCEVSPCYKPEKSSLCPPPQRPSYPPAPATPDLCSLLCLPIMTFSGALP

SMILES: COC[C@H]1OC(=O)c2coc3c2[C@@]1(C)C1=C(C3=O)[C@@H]2CCC(=O)[C@@]2(C)C[C@H]1OC(C)=O [wortmannin]
- fMLP-induced respiratory burst response ([1]; Thelen et al., 1994): prevents
- superoxide production in neutrophils [1]: shutdown of superoxide production
- wortmannin sensitivity of PI3K activity in α-(EE)-p101 immunoprecipitates [2]: wortmannin-sensitive
- inhibition of PI3K activity by wortmannin [3]: completely inhibited
- wortmannin sensitivity of free p120 PI3K activity [4]: wortmannin-sensitive
